{"source": "patent US7468357B2", "about": "“Nucleosides with anti-hepatitis B virus activity” (Emory University, priority 1994, dated 2008)", "key": {"[1]": {"test": "Toxicity analysis by uptake of neutral red dye in 2.2.15 cell cultures", "details": "human", "method": "(§1) Toxicity analyses were performed in order to assess whether any observed antiviral effects were due to a general effect on cell viability. The method used was based on the uptake of neutral red dye, a standard and widely used assay for cell viability in a variety of virus-host systems, including HSV (herpes simplex virus) and HIV. The test compounds were used in the form of 40 mM stock solutions in DMSO (frozen on dry ice). Daily aliquots of the test samples were made and frozen at −20° C. so that each individual aliquot would be subjected to a single freeze-thaw cycle. The daily test aliquots were thawed, suspended into culture medium at room temperature and immediately added to the cell cultures. The compounds were tested at 0.01 to 10 μM for antiviral activity. The compounds were tested for toxicity at concentrations from 1 to 300 μM.\n(§2) Toxicity analyses were performed in 96-well flat bottomed tissue culture plates. Cells for the toxicity analyses were cultured and treated with test compounds with the same schedule as used for the antiviral evaluations. Each compound was tested at 4 concentrations, each in triplicate cultures. Uptake of neutral red dye was used to determine the relative level of toxicity. The absorbance of internalized dye at […] (A510) was used for the quantitative analysis. Values are presented as a percentage of the average A510 values (± standard deviations) in 9 separate cultures of untreated cells maintained on the same 96-well plate as the test compounds."}, "[2]": {"system": "Hepatitis B virus", "test": "Inhibition of HBV replication in transfected HepG-2 (2.2.15) cells (HBV virion DNA and replicative intermediates, blot hybridization)", "assay_type": "cell-based", "details": "for Selectivity Index IC50/EC50 RI: cytotoxicity IC50 / RI EC50; for Selectivity Index IC50/EC50 Virion: cytotoxicity IC50 / virion EC50; for Selectivity Index IC50/EC90 RI: cytotoxicity IC50 / RI EC90", "method": "The assay used herein to evaluate the ability of the disclosed compounds to inhibit the replication of HBV is described in detail in Korba and Gerin, Antiviral Res. 19: 55-70 (1992). […] The toxicity and anti-HBV activity of (−)-β-L-2-hydroxymethyl-5-(5-fluorocytosin-1-yl)-1,3-oxathiolane ((−)-β-L-FTC) and β-D-2′,3′-dideoxycytidine (β-D-ddC) are included as controls. The other compounds disclosed herein can be evaluated similarly.\nThe antiviral evaluations were performed on two separate passages of cells, two cultures per passage (4 cultures total). All wells, in all plates, were seeded at the same density and at the same time.\n(Korba and Gerin, Antiviral Res. 19: 55-70, 1992). The levels of integrated HBV DNA in each cellular DNA preparation (which remain constant on a per cell basis in these experiments) were used to calculate the levels of intracellular HBV DNA forms, thereby eliminating technical variations inherent in the blot hybridization assays.\nas §1"}, "[3]": {"system": "2.2.15 cells (HepG2 cells transformed with hepatitis virion)", "test": "Toxicity analysis by uptake of neutral red dye in 2.2.15 cell cultures", "method": "as §1, §2"}, "[4]": {"biological_target": "human DNA polymerase β (Homo sapiens, UniProt P06746)", "test": "Inhibition of human DNA polymerase β by triphosphates", "assay_type": "biochemical", "details": "read-out: DNA Pol β Ki"}, "[5]": {"biological_target": "T1, human DNA polymerase α (Homo sapiens, UniProt P09884)", "T1 sequence (P09884 1-1462)": "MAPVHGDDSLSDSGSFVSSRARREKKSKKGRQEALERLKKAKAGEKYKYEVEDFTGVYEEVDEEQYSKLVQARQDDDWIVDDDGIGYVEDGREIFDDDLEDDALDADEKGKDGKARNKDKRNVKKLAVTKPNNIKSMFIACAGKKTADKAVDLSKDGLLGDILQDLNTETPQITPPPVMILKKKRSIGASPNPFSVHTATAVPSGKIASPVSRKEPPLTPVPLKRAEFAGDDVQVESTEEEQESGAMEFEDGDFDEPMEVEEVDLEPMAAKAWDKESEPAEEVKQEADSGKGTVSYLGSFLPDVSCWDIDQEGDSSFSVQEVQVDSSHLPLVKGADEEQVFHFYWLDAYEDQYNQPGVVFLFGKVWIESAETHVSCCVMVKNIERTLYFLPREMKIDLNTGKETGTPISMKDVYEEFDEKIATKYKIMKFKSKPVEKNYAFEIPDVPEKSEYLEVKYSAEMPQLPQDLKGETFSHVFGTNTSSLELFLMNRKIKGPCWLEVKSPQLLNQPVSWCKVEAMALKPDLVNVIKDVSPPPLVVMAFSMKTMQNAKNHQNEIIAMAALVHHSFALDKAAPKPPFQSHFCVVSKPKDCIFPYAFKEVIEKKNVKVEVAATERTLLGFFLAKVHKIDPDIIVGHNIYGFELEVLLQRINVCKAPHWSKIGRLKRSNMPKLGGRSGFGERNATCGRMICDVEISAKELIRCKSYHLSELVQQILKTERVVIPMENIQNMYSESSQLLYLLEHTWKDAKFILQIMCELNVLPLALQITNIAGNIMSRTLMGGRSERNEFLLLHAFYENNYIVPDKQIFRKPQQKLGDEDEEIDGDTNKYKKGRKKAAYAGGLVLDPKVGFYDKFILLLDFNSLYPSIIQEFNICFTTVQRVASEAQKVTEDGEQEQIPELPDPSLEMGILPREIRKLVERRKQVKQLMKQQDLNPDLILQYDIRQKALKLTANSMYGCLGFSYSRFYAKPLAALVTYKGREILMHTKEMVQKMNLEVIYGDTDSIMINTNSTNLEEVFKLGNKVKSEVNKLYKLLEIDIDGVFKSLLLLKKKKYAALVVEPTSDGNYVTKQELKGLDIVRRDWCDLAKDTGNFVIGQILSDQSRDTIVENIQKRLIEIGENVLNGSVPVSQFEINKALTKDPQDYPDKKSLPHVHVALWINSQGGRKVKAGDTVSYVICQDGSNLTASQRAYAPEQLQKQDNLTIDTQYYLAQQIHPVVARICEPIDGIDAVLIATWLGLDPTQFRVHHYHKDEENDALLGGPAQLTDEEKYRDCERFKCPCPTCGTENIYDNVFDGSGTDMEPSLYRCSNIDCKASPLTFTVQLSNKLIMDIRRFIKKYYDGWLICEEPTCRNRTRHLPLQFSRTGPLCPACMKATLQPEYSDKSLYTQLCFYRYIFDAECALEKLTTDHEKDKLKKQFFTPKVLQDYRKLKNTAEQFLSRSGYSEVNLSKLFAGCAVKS", "test": "Inhibition of human DNA polymerase α by triphosphates", "assay_type": "biochemical", "details": "read-out: DNA Pol α Ki"}, "[6]": {"biological_target": "woodchuck hepatitis virus DNA polymerase (Woodchuck hepatitis B virus, UniProt P03160)", "sequence (P03160 whole entry)": "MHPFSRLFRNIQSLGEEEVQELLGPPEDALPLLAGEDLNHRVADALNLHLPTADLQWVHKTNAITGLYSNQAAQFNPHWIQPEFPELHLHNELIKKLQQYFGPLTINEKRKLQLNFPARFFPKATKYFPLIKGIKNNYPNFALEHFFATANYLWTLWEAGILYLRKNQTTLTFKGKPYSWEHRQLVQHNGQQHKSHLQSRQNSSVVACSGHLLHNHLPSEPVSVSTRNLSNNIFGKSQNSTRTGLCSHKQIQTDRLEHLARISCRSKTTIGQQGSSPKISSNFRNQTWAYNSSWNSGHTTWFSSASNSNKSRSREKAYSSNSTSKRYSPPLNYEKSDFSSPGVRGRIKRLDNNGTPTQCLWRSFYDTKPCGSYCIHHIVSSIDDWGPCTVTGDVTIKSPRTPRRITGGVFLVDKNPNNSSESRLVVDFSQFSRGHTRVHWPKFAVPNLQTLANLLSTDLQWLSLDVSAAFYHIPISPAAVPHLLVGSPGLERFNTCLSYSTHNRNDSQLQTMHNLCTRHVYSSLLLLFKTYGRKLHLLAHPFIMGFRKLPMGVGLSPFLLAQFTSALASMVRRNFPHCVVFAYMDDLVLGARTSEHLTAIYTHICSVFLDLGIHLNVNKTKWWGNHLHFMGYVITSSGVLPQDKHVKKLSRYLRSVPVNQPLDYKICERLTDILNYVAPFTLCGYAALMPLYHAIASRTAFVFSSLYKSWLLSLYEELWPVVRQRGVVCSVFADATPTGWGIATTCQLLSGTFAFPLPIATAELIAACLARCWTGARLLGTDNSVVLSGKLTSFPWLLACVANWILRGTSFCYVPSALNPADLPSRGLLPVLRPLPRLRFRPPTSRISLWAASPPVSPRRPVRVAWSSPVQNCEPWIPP", "test": "Inhibition of woodchuck hepatitis virus DNA polymerase by triphosphates", "assay_type": "biochemical", "details": "read-out: WHB DNA Pol IC50"}, "[7]": {"system": "Hepatitis B virus", "details": "previous studies, Korba and Gerin 1992; cited from earlier work"}, "[8]": {"system": "2.2.15 cells (HepG2 cells transformed with hepatitis virion)", "details": "typically observed, Korba and Gerin 1992; read-out: Concentration giving a 2-fold reduction in dye uptake; cited from earlier work"}, "[9]": {"details": "read-out: Cytotoxity IC50 ± SD, Table 1, neutral red dye uptake, 2.2.15 cells"}, "[10]": {"details": "read-out: Cytotoxicity IC50, Table 2, Hep G-2 (2.2.15) cells"}, "[11]": {"details": "Table 2, extracellular DNA, transfected Hep G-2 (2.2.15) cells, read-out: HBV Virion EC50"}, "[12]": {"details": "Table 2, replicative intermediates (intracellular DNA), transfected Hep G-2 (2.2.15) cells, read-out: HBV RI EC50"}}, "note": "Several values for one entry are separate records, joined by “and”; a condition that tells them apart may be missing. Equal entries are not always repeated. Where two headings read alike, the source gives them in different places."}
{"compound": "Nc1nc(=O)n([C@H]2O[C@@H](CO)C[C@H]2F)cc1F", "note": "[2′-F-β-L-5FDDC, 1-(2-Fluoro-2,3-dideoxy-β-L-threo-pentofuranosyl)-5-fluorocytosine]", "values": [{"measurement": "IC50", "setting": "[1]", "result": 210, "unit": "µM"}, {"measurement": "EC50", "setting": "[2]; Hepatitis B virus, HepG2 2.2.15, read-out: HBV RI EC50", "result": 5, "unit": "µM"}, {"measurement": "EC50", "setting": "[2]; Hepatitis B virus, HepG2 2.2.15, read-out: HBV Virion EC50", "result": 1.7, "unit": "µM"}, {"measurement": "Selectivity Index IC50/EC50 RI", "setting": "[2]; Table 2", "result": 42}, {"measurement": "Selectivity Index IC50/EC50 Virion", "setting": "[2]; Table 2", "result": 124}]}
{"compound": "Nc1nc(=O)n(C2CSC(CO)O2)cc1F", "note": "[(−)-β-L-FTC, (−)-β-L-2-hydroxymethyl-5-(5-fluorocytosin-1-yl)-1,3-oxathiolane, reference compound]", "values": [{"measurement": "IC50", "setting": "[3]; [9]", "result": "292 ± 13", "unit": "µM"}, {"measurement": "Selectivity Index IC50/EC90 RI", "setting": "[2]; Table 1", "result": "1,622"}, {"measurement": "Selectivity Index IC50/EC90 Virion", "setting": "[2]; Table 1, cytotoxicity IC50 / virion EC90", "result": "1,947"}, {"measurement": "EC50", "setting": "[2]; Table 1, extracellular DNA, transfected HEPG-2 (2.2.15) cells, read-out: HBV viron EC50 ± SD", "result": "0.017 ± 0.005", "unit": "µM"}, {"measurement": "EC90", "setting": "[2]; Table 1, extracellular DNA, transfected HEPG-2 (2.2.15) cells, read-out: HBV viron EC90 ± SD", "result": "0.15 ± 0.02", "unit": "µM"}, {"measurement": "EC50", "setting": "[2]; Table 1, replicative intermediates (intracellular DNA), transfected HEPG-2 (2.2.15) cells, read-out: HBV RI EC50 ± SD", "result": "0.049 ± 0.008", "unit": "µM"}, {"measurement": "EC90", "setting": "[2]; Table 1, replicative intermediates (intracellular DNA), transfected HEPG-2 (2.2.15) cells, read-out: HBV RI EC90 ± SD", "result": "0.18 ± 0.03", "unit": "µM"}]}
{"compound": "CC(=O)SCCOP(=O)(OCCSC(C)=O)OC[C@@H]1O[C@H](n2cc(C)c(=O)[nH]c2=O)C[C@H]1N=[N+]=[N-]", "note": "[Bis (Sate) β-L-AZTMP]", "values": [{"measurement": "IC50", "setting": "[3]; [10]", "result": 200, "unit": "µM"}, {"measurement": "Selectivity Index IC50/EC50 RI", "setting": "[2]; Table 2", "result": 25}, {"measurement": "Selectivity Index IC50/EC50 Virion", "setting": "[2]; Table 2", "result": 27}, {"measurement": "EC50", "setting": "[2]; [11]", "result": 7.5, "unit": "µM"}, {"measurement": "EC50", "setting": "[2]; [12]", "result": 8, "unit": "µM"}]}
{"compound": "CC(C)(C)C(=O)SCCOP(=O)(OCCSC(=O)C(C)(C)C)OCC1CCC(n2cnc3c(N)ncnc32)O1", "note": "[Bis (Sate) β-L-ddAMP, β-L-2′,3′-Dideoxyadenosin-5′-yl bis (2-pivaloylthioethyl) phosphate]", "values": [{"measurement": "IC50", "setting": "[3]; [10]", "result": 200, "unit": "µM"}, {"measurement": "Selectivity Index IC50/EC50 RI", "setting": "[2]; Table 2", "result": 571}, {"measurement": "Selectivity Index IC50/EC50 Virion", "setting": "[2]; Table 2", "result": 445}, {"measurement": "EC50", "setting": "[2]; [11]", "result": 0.45, "unit": "µM"}, {"measurement": "EC50", "setting": "[2]; [12]", "result": 0.35, "unit": "µM"}]}
{"compound": "Nc1ccn([C@@H]2CS[C@H](COP(=O)(O)OP(=O)(O)OP(=O)(O)O)O2)c(=O)n1", "note": "[Compound 3-TC-TP, reference compound]", "values": [{"measurement": "Ki", "setting": "[4]", "result": "> 100", "unit": "µM"}, {"measurement": "Ki", "setting": "[5]", "result": "> 100", "unit": "µM"}, {"measurement": "IC50", "setting": "[6]", "result": 1, "unit": "µM"}]}
{"compound": "Nc1ccn([C@H]2CC[C@@H](CO)O2)c(=O)n1", "note": "[β-D-DDC, β-D-2′,3′-dideoxycytidine, reference compound]", "values": [{"measurement": "Concentration giving a 90% depression of HBV RI", "setting": "[7]", "result": "9 to 12", "unit": "µM"}, {"measurement": "IC50", "setting": "[8]", "result": "150 to 190", "unit": "µM"}, {"measurement": "IC50", "setting": "[1]; Cytotoxity IC50 ± SD, Table 1, neutral red dye uptake, 2.2.15 cells", "result": "216 ± 22", "unit": "µM"}, {"measurement": "IC50", "setting": "[3]; [9]", "result": 219, "unit": "µM"}, {"measurement": "Inhibition of HBV replication (depression of HBV virion DNA and HBV RI), in words", "setting": "[2]; 2.2.15 cells", "result": "significant depressions of HBV DNA replication"}, {"measurement": "EC90", "setting": "[2]; Hepatitis B virus, HepG2 2.2.15, read-out: HBV RI EC90 ± SD, Table 1, replicative intermediates (intracellular DNA), transfected HEPG-2 (2.2.15) cells", "result": "11 ± 2", "unit": "µM"}, {"measurement": "EC50", "setting": "[2]; Hepatitis B virus, HepG2 2.2.15, read-out: HBV viron EC50 ± SD, Table 1, extracellular DNA, transfected HEPG-2 (2.2.15) cells", "result": "1.5 ± 0.7", "unit": "µM"}, {"measurement": "Selectivity Index IC50/EC90 RI", "setting": "[2]; Table 1", "result": "20 and 18"}, {"measurement": "EC90", "setting": "[2]; read-out: HBV RI EC90 ± SD, Table 1, replicative intermediates (intracellular DNA), transfected HEPG-2 (2.2.15) cells", "result": "12 ± 2.4", "unit": "µM"}, {"measurement": "EC50", "setting": "[2]; read-out: HBV viron EC50 ± SD, Table 1, extracellular DNA, transfected HEPG-2 (2.2.15) cells", "result": 1.3, "unit": "µM"}]}
